These results are taken from patent US6093730A, “Substituted isoquinoline-3-carboxamides, their preparation and their use as pharmaceuticals” (Hoechst Marion Roussel Deutschland GmbH, priority 1997, dated 2000).

Structures are written as SMILES.

One assay has as its system hydroxyproline formation. In words: Carbon tetrachloride-induced liver fibrosis model in rats, inhibition of hydroxyproline formation. It is filed as in vivo, rat. The following applies: 20 mg/kg (total), intraperitoneal twice per day, two weeks with CCl4. As to the method:
The antifibrotic action was determined in the model of carbon tetrachloride-induced liver fibrosis. For this, rats were treated twice weekly with CCl4 (1 ml/kg) dissolved in olive oil. The test substance was administered daily, if appropriate even twice daily, orally or intraperitoneally dissolved in a suitable compatible solvent. The extent of the liver fibrosis was determined histologically and the proportion of collagen in the liver was analyzed by hydroxyproline determination as described in Kivirikko et al., ANAL. BIOCHEM. […] The fibrogenesis activity was determined by radioimmunological determination of collagen fragments and procollagen peptides in the serum.
The measurement of the inhibition of hydroxyproline formation by the test substances was based on this level.
Here the experimental animals were treated for two weeks only with carbon tetrachloride, then for the next two weeks with carbon tetrachloride and test substance. The test substances were administered intraperitoneally twice per day in the total amount indicated below in Table II,
For `CC(C)Oc1ccc2c(O)c(C(=O)NCC(=O)O)nc(Cl)c2c1` [Example 1, N-((1-Chloro-4-hydroxy-7-(2-propyloxy)isoquinolin-3-yl)carbonyl)glycine], the “Change in hydroxyproline formation” value was -55%.

The assay is the same for the next values; noted with them: 40 mg/kg (total), intraperitoneal twice per day, two weeks with CCl4.
`CC(C)Oc1ccc2c(O)c(C(=O)NCCO)nc(Cl)c2c1` [Example 19, 1-Chloro-4-hydroxy-7-(2-propyloxy)isoquinoline-3-carboxylic acid N-(2-hydroxyethyl)amide]: the “Change in hydroxyproline formation” value is on record as -39%.

The target of another assay is T1, prolyl-4-hydroxylase (Gallus gallus, UniProt P16924).
T1 sequence (P16924 1-516): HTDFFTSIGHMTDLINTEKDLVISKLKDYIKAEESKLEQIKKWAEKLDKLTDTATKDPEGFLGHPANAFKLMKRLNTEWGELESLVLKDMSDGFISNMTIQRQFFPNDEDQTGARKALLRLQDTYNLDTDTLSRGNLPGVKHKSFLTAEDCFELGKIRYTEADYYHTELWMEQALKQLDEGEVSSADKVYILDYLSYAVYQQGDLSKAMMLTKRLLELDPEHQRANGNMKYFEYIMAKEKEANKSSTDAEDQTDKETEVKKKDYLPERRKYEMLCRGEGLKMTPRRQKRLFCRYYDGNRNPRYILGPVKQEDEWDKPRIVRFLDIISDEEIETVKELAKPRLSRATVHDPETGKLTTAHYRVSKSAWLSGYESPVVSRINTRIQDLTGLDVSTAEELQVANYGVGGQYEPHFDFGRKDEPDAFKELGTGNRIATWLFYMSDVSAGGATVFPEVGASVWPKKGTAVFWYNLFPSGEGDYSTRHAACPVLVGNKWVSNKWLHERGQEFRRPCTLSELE
T1 sequence (P09102 23-515 partner): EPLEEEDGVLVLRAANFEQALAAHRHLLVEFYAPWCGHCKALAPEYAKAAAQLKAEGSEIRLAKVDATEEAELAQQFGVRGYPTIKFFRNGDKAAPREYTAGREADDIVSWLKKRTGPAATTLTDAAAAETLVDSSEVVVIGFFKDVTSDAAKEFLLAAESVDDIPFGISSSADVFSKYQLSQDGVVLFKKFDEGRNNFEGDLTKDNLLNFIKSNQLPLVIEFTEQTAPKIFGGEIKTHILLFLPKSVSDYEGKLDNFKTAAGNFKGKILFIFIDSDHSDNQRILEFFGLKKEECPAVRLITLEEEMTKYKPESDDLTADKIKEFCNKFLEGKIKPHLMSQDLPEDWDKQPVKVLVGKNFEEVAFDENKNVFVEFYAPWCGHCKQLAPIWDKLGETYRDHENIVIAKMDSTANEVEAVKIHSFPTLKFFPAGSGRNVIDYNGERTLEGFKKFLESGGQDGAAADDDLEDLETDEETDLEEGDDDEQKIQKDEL
In words: Inhibition of prolyl-4-hydroxylase (Table I). The class given is biochemical. The following applies: Table I; read-out: IC50. The procedure:
The inhibition of this enzyme was determined as described by Kaule and Gunzler, ANAL. BIOCHEM.
As a reminder, the IC50 is the concentration that inhibits the measured activity by half. Consider `CCCCOc1ccc2cnc(C(=O)NCC(=O)O)c(O)c2c1` [Example 14, N-((6-(1-Butyloxy)-4-hydroxyisoquinolin-3-yl)carbonyl)glycine], for which the IC50 is 0.35 µM.

For `COc1ccc2c(O)c(C(=O)NCC(=O)O)nc(Cl)c2c1` [Example 3, N-((1-Chloro-4-hydroxy-7-methoxyisoquinolin-3-yl)carbonyl)glycine], the IC50 turned out to be 0.79 µM.

In the case of `COc1cccc2c(O)c(C(=O)NCC(=O)O)ncc12` [Example 12, N-((4-Hydroxy-8-methoxyisoquinolin-3-yl)carbonyl)glycine], the IC50 was found to be 0.65 µM.

Take `CC(C)Oc1ccc2c(O)c(C(=O)NCC(=O)O)nc(Cl)c2c1` [Example 1, N-((1-Chloro-4-hydroxy-7-(2-propyloxy)isoquinolin-3-yl)carbonyl)glycine]: the IC50 worked out at 0.12 µM.

On to `O=C(O)CNC(=O)c1nc(Cl)c2cc(Cl)c(Cl)cc2c1O` [Example 10, N-((1,6,7-Trichloro-4-hydroxyisoquinolin-3-yl)carbonyl)glycine], for which the IC50 was 3.6 µM.

With `CC(C)Oc1ccc2c(Cl)nc(C(=O)NCC(=O)O)c(O)c2c1` [Example 2, N-((1-Chloro-4-hydroxy-6-(2-propyloxy)isoquinolin-3-yl)carbonyl)glycine], the IC50 was found to be 1.9 µM.

With `CCCCOc1ccc2c(Cl)nc(C(=O)NCC(=O)O)c(O)c2c1` [Example 6, N-(-6-(1-Butyloxy-1-chloro-4-hydroxyisoquinolin-3-yl)carbonyl)glycine], the IC50 came out at 2.02 µM.

Consider `CC(C)Oc1ccc2c(O)c(C(=O)NCC(=O)O)ncc2c1` [Example 15, N-((4-Hydroxy-7-(2-propyloxy)isoquinolin-3-yl)carbonyl)glycine], for which the half-maximal inhibitory concentration (IC50) stood at 0.66 µM.

With `O=C(O)CNC(=O)c1nc(Cl)c2cc(OCc3ccccc3)ccc2c1O` [Example 8, N-((7-Benzyloxy-1-chloro-4-hydroxyisoquinolin-3-yl)carbonyl)glycine], the IC50 was 0.62 µM.

Consider `CCCCOc1ccc2c(O)c(C(=O)NCC(=O)O)ncc2c1` [Example 13, N-((7-(1-Butyloxy)-4-hydroxyisoquinolin-3-yl)carbonyl)glycine], for which the IC50 was 9.3 µM.

Regarding `COc1ccc2c(Cl)nc(C(=O)NCC(=O)O)c(O)c2c1` [Example 4, N-((1-Chloro-4-hydroxy-6-methoxyisoquinolin-3-yl)carbonyl)glycine], the IC50 was found to be 0.57 µM.

Turning to `O=C(O)CNC(=O)c1nc(Cl)c2ccc(OCc3ccccc3)cc2c1O` [Example 7, N-((6-Benzyloxy-1-chloro-4-hydroxyisoquinolin-3-yl)carbonyl)glycine], the IC50 came out at 1.34 µM.

For the compound `O=C(O)CNC(=O)c1ncc2c(Cl)cccc2c1O` [Example 11, N-((8-Chloro-4-hydroxyisoquinolin-3-yl)carbonyl)glycine], the IC50 turned out to be 0.66 µM.

With `CCCCOc1ccc2c(O)c(C(=O)NCC(=O)O)nc(Cl)c2c1` [Example 5, N-((7-(1-Butyloxy)-1-chloro-4-hydroxyisoquinolin-3-yl)carbonyl)glycine], the IC50 is 0.7 µM.

A further assay deals with collagen biosynthesis.
Test: not given
The following applies: Franklin et al.; cited from earlier work.
Consider `O=C(O)CNC(=O)c1ncc2ccccc2c1O` [N-((4-Hydroxyisoquinolin-3-yl)carbonyl)glycine], for which the “in-vivo activity on collagen biosynthesis” value is recorded as “poor”.

Another assay has as its system prolyl hydroxylase.
Test: not given
The following applies: Tschank et al.; cited from earlier work.
As to `O=C(O)c1ccnc(C(=O)O)c1` [pyridine-2,4-dicarboxylic acid], the “activity as inhibitors in cell culture” value is given as “only active as inhibitors in very high concentrations”.

In the case of `O=C(O)c1ccc(C(=O)O)nc1` [pyridine-2,5-dicarboxylic acid], the “activity as inhibitors in cell culture” value was “only active as inhibitors in very high concentrations”.

For another assay, the system named is prolyl hydroxylase.
Test: not given
The following applies: Majamaa et al.; cited from earlier work.
With `O=C(O)c1ccnc(C(=O)O)c1` [pyridine-2,4-dicarboxylic acid], the “inhibition of prolyl hydroxylase” value was “effectively inhibited”.

`O=C(O)c1ccc(C(=O)O)nc1` [pyridine-2,5-dicarboxylic acid]: the “inhibition of prolyl hydroxylase” value was “effectively inhibited”.

For the next assay, the target named is T1, prolyl-4-hydroxylase. In words: Combined liver perfusion/enzyme assay (prolyl-4-hydroxylase inhibition after rat liver perfusion). The class given is biochemical, chicken. Further details: The enzyme is purified from 14 day-old chicken embryos; from tissue; host or cells: 14-day-old chicken embryos. To be noted: after 120 min rat liver perfusion; 100 or 50 μg/ml added at t=0 and 60 min. The procedure: In order to investigate the inhibitory action of such active proinhibitors, the compounds were employed in perfusion experiments on isolated rat liver. The inhibitory action was then measured in a prolyl-4-hydroxylase assay.
Unfasted male Wistar rats of 200-300 g body weight (Hoe:WISKf(SPF71)) were anesthetized with pentobarbital (5 mg/100 g of body weight i.p.). After cannulation of the portal vein, the liver was washed with 100 ml of heparinized saline solution (5 lU/ml) of 37° C. for 3 min. The fluid left the liver by the incised vena cava. The organ was then removed, attached to the perfusion apparatus and perfused at a flow rate of 30 ml/min with 100 ml of medium for 2 hours under recirculating conditions. Krebs-Ringer buffer containing bovine erythrocytes was used for the perfusion. For this, bovine blood was mixed 1:1 with a citrate solution in the slaughterhouse immediately after removal. This mixture was centrifuged at 6000 rpm for 10 min and the supernatant was removed. This process was repeated once using saline solution and twice using Krebs-Ringer buffer. The final perfusion solution contained 33.3% of the erythrocyte sediment and 66.7% of Krebs-Ringer buffer (Schimassek, H. BIOCHEM. Z. 336 (1963) 460-467).
Perfusion apparatus (Ryoo and Tarver, H.P.S.E.B.M. 128 (1968) 760-72): The central element of the apparatus is a thermostated cylinder having a removable plate for the storage of the organ. The outlet tube is extended and its lower end is attached to a peristaltic pump. Before the return of the perfusate into the organ bath, it is passed through a glass spiral, which serves as a heat exchanger, which keeps the temperature constant at 37° C. At the bottom of the cylinder, the perfusate is aerated with 70 ml of a CO2 /O2 mixture (5:95%) per minute. In order to avoid foam formation, 14 μl of 0.1% strength Genapol® PF-10 solution are added per ml of perfusion solution. Samples for analysis are removed from the perfusate at a position before entry into the perfused organ.
The test substances were added to the perfusion solution at time t=0 and 60 min in concentrations of 100 or 50 μg/ml in each case. After a perfusion time of 120 min, a sample of the perfusion solution was removed for analysis.
The inhibitory activity of the metabolites which are formed in the liver during the two-hour perfusion was determined in an in vitro prolyl-4-hydroxylase assay. The enzyme is purified from 14 day-old chicken embryos as described in the literature (Tuderman et al., EUR.J.BIOCHEM. 52 (1975) 9-16; Kedersha and Berg, COLLAGEN REL. RES. 1 (1981) 345-53). The enzyme test is carried out according to Kaule and Gunzler, ANAL. BIOCHEM. 184 (1990) 291-97). Dose-response curves were obtained by means of dilution series, starting from the undiluted perfusion solution.
In the case of `CC(C)Oc1ccc2c(Cl)nc(C(=O)NCCO)c(O)c2c1` [Example 20, 1-Chloro-4-hydroxy-6-(2-propyloxy)isoquinoline-3-carboxylic acid N-(2-hydroxyethyl)amide], the IC50 amounted to 16.6 µM.

Take `CC(C)Oc1ccc2c(O)c(C(=O)NCCO)nc(Cl)c2c1` [Example 19, 1-Chloro-4-hydroxy-7-(2-propyloxy)isoquinoline-3-carboxylic acid N-(2-hydroxyethyl)amide]: the IC50 was determined as 10.5 µM.

On to `CCCCOc1ccc2c(O)c(C(=O)NCCO)nc(Cl)c2c1` [Example 23, 7-(1-Butyloxy)-1-chloro-4-hydroxyisoquinoline-3-carboxylic acid N-(2-hydroxyethyl)amide], for which the IC50 is 21.7 µM.

As for `COc1ccc2c(O)c(C(=O)NCCO)nc(Cl)c2c1` [Example 21, 1-Chloro-4-hydroxy-7-methoxyisoquinoline-3-carboxylic acid N-(2-hydroxyethyl)amide], the IC50 was 7.5 µM.

`COc1ccc2c(Cl)nc(C(=O)NCCO)c(O)c2c1` [Example 22, 1-Chloro-4-hydroxy-6-methoxyisoquinoline-3-carboxylic acid N-(2-hydroxyethyl)amide]: the IC50 is 6.4 µM.
